According to article PMC12396409, “Screening and hit evaluation of a microbial metabolite library against the pathogenic Plasmodium falciparum and Toxoplasma gondii parasites” (International Journal for Parasitology: Drugs and Drug …, 2025):
Read-outs that look alike come from different tables or passages of the source. Where a SMILES comes first, the peptide text is derived from it. Bridges are numbered along the chain shown (N, C = ends). [ ]: non-standard residue; d: D form. The star is where a group is joined. Ileψ(thiazoline)Cys = CC[C@H](C)[C@H](N)C1=N[C@H](C(=O)*)CS1; dOrn = NCCC[C@@H](N)C(=O)O

Key:
[1] = system: P. falciparum 3D7 parasites; experiment: P. falciparum growth inhibition assay, 2-cycle (120 h treatment), delayed-death screen and dose-response; format: cell-based, Plasmodium falciparum; conditions: 120 h; for activity at 2 µg/mL: Plasmodium falciparum
[2] = system: P. falciparum 3D7 parasites; experiment: P. falciparum growth inhibition assay, 1-cycle (72 h treatment), SYBR DNA staining (library screen at 2 μg/mL and dose-response); format: cell-based, Plasmodium falciparum; conditions: 72 h; for activity at 2 µg/mL: Plasmodium falciparum
[3] = system: T. gondii RH strain (RH-Tub-eYFP) tachyzoites; experiment: microbe, parasite or virus in culture; format: cell-based, Toxoplasma gondii; conditions: 72 h, 72 h; for percent parasite growth at 2 µg/mL: Toxoplasma gondii
[4] = T. gondii, screen at 2 μg/mL, replicate 1, read-out: Tg_72h_%Growth_Rep1
[5] = T. gondii, screen at 2 μg/mL, replicate 2, read-out: Tg_72h_%Growth_Rep2
[6] = P. falciparum, screen at 2 μg/mL, replicate 1
[7] = P. falciparum, screen at 2 μg/mL, replicate 2
[8] = T. gondii, screen at 2 μg/mL, replicate 1
[9] = T. gondii, screen at 2 μg/mL, replicate 2
[10] = library screen at 2 μg/mL, % growth, replicate 1
[11] = library screen at 2 μg/mL, % growth, replicate 2

Compound `CC[C@H](C)[C@H](N)C1=N[C@H](C(=O)N[C@@H](CC(C)C)C(=O)N[C@H](CCC(=O)O)C(=O)N[C@H](C(=O)N[C@H]2CCCCNC(=O)[C@H](CC(N)=O)NC(=O)[C@@H](CC(=O)O)NC(=O)[C@H](Cc3cnc[nH]3)NC(=O)[C@@H](Cc3ccccc3)NC(=O)[C@H]([C@@H](C)CC)NC(=O)[C@@H](CCCN)NC2=O)[C@@H](C)CC)CS1` [Bacitracin A] ({Ileψ(thiazoline)Cys}-L[dE]IK[dOrn]I[dF]H[dD]N; lactam 4-C) has an activity at 2 µg/mL ([1]; 3D7, library screen at 2 μg/mL, % growth, replicate 1, read-out: Pf_120h_%Growth_Rep1) of 59.9%, an activity at 2 µg/mL ([1]; 3D7, library screen at 2 μg/mL, % growth, replicate 2, read-out: Pf_120h_%Growth_Rep2) of 94.6% and an activity at 2 µg/mL ([2]; 3D7, library screen at 2 μg/mL, % growth, replicate 1, read-out: Pf_72h_%Growth_Rep1) of 27.2%. For the same compound, the activity at 2 µg/mL ([2]; 3D7, library screen at 2 μg/mL, % growth, replicate 2, read-out: Pf_72h_%Growth_Rep2) was 89.3%, the percent parasite growth at 2 µg/mL ([3]; library screen at 2 μg/mL, % growth, replicate 1, read-out: Tg_72h_%Growth_Rep1) was 81.4% and the percent parasite growth at 2 µg/mL ([3]; library screen at 2 μg/mL, % growth, replicate 2, read-out: Tg_72h_%Growth_Rep2) was 89.8%.

In the case of `C=C1[C@@H](C)[C@H]2[C@H](Cc3ccccc3)NC(=O)[C@]23OC(=O)/C=C/[C@H](O)CCC[C@@H](C)C/C=C/[C@H]3[C@@H]1O` [Cytochalasin B], the activity at 2 µg/mL ([1]; 3D7, 120 h, P. falciparum, screen at 2 μg/mL, replicate 1, read-out: Pf_120h_%Growth_Rep1) is reported as -1.09%, the activity at 2 µg/mL ([1]; 3D7, 120 h, P. falciparum, screen at 2 μg/mL, replicate 2, read-out: Pf_120h_%Growth_Rep2) is reported as 8.72% and the activity at 2 µg/mL ([2]; 3D7, 72 h, P. falciparum, screen at 2 μg/mL, replicate 1, read-out: Pf_72h_%Growth_Rep1) is reported as 8.23%. For the same compound, the activity at 2 µg/mL ([2]; 3D7, 72 h, P. falciparum, screen at 2 μg/mL, replicate 2, read-out: Pf_72h_%Growth_Rep2) was 10.3%, the percent parasite growth at 2 µg/mL [3, 4] was 31.3% and the percent parasite growth at 2 µg/mL [3, 5] was 60.5%.

For `CC(C)=CC(=O)C[C@H](C)c1ccc(C)cc1` [Turmerone], the Pf_120h_%Growth_Rep1 [1, 6] was 78.99%, the Pf_120h_%Growth_Rep2 [1, 7] was 84.67% and the Pf_72h_%Growth_Rep1 [2, 6] was 81.95%. The Pf_72h_%Growth_Rep2 [2, 7] was 115.94%, the Tg_72h_%Growth_Rep1 [3, 8] was 108.84% and the Tg_72h_%Growth_Rep2 [3, 9] was 94.24%.

With `COCCC[C@H]1O[C@@](O)([C@H](C)C2CC(OC)C(O)/C=C(C)/C=C(C)/C=C(/C)C(O[C@H]3O[C@H](C)[C@@H](OC)[C@H](O)[C@H]3O)C(C)/C=C(CO)/C=C(OC)\C=C(/C)C(=O)O2)[C@H](OC)[C@@H](O)[C@]1(C)O[C@H]1C[C@H](O)[C@H](O[C@H]2C[C@@](C)(O)[C@H](O)[C@@H](C)O2)[C@@H](C)O1` (stereo partly drawn) [Amycolatopsin A] the Pf_120h_%Growth_Rep1 [1, 10] was 67.28%, the Pf_120h_%Growth_Rep2 [1, 11] was 94.98% and the Pf_72h_%Growth_Rep1 [2, 10] was 76.67%. The Pf_72h_%Growth_Rep2 [2, 11] was 110.14%, the Tg_72h_%Growth_Rep1 [3, 10] was 96.54% and the Tg_72h_%Growth_Rep2 [3, 11] was 72.55%.

Work on `O=C(c1cc(Cl)c(Cl)[nH]1)c1c(O)cccc1O` [Pyoluteorin] yielded an activity at 2 µg/mL ([1]; 3D7, 120 h, P. falciparum, parasite screen 2 μg/mL, % growth, replicate 1, read-out: Pf_120h_%Growth_Rep1) of 21.2%, an activity at 2 µg/mL ([1]; 3D7, 120 h, P. falciparum, parasite screen 2 μg/mL, % growth, replicate 2, read-out: Pf_120h_%Growth_Rep2) of 3.32% and an activity at 2 µg/mL ([2]; 3D7, 72 h, P. falciparum, parasite screen 2 μg/mL, % growth, replicate 1, read-out: Pf_72h_%Growth_Rep1) of 12.8%. For the same compound, the activity at 2 µg/mL ([2]; 3D7, 72 h, P. falciparum, parasite screen 2 μg/mL, % growth, replicate 2, read-out: Pf_72h_%Growth_Rep2) was 3.08%, the percent parasite growth at 2 µg/mL ([3]; T. gondii, parasite screen 2 μg/mL, % growth, replicate 1, read-out: Tg_72h_%Growth_Rep1) was -1.3% and the percent parasite growth at 2 µg/mL ([3]; T. gondii, parasite screen 2 μg/mL, % growth, replicate 2, read-out: Tg_72h_%Growth_Rep2) was -1.92%.

With `CC[C@H]1OC(=O)[C@H](C)C(=O)[C@H](C)[C@@H](O[C@@H]2O[C@H](C)C[C@H](N(C)C)[C@H]2O)[C@](C)(OC)C[C@@H](C)C(=O)[C@H](C)[C@H]2N(CCCCn3cnc(-c4cccnc4)c3)C(=O)O[C@]12C` [Telithromycin] the activity at 2 µg/mL ([1]; 3D7, P. falciparum, screen at 2 μg/mL, replicate 1, read-out: Pf_120h_%Growth_Rep1) was 50.8%, the activity at 2 µg/mL ([1]; 3D7, P. falciparum, screen at 2 μg/mL, replicate 2, read-out: Pf_120h_%Growth_Rep2) was 9.42% and the activity at 2 µg/mL ([2]; 3D7, P. falciparum, screen at 2 μg/mL, replicate 1, read-out: Pf_72h_%Growth_Rep1) was 42.3%. It also gave an activity at 2 µg/mL ([2]; 3D7, P. falciparum, screen at 2 μg/mL, replicate 2, read-out: Pf_72h_%Growth_Rep2) of 40.6%, a percent parasite growth at 2 µg/mL [3, 4] of 56.9% and a percent parasite growth at 2 µg/mL [3, 5] of 55.2%.

`CC[C@H]1C[C@@H]2CC[C@@H](O2)[C@@H](C)C(=O)O[C@H](CC)C[C@H]2CC[C@H](O2)[C@H](C)C(=O)O[C@@H](C)C[C@@H]2CC[C@@H](O2)[C@@H](C)C(=O)O[C@H](CC)C[C@H]2CC[C@H](O2)[C@H](C)C(=O)O1` [Trinactin] gave a Pf_120h_%Growth_Rep1 [1, 6] of 16.44%, a Pf_120h_%Growth_Rep2 [1, 7] of 5.60% and a Pf_72h_%Growth_Rep1 [2, 6] of 3.59%. For the same compound, the Pf_72h_%Growth_Rep2 [2, 7] was -0.10%, the Tg_72h_%Growth_Rep1 [3, 8] was 2.98% and the Tg_72h_%Growth_Rep2 [3, 9] was 5.01%.

Compound `O=c1[nH]c2ccccc2c(-c2cccc(O)c2)c1O` [Viridicatol] has a Pf_120h_%Growth_Rep1 [1, 6] of 110.38%, a Pf_120h_%Growth_Rep2 [1, 7] of 105.05% and a Pf_72h_%Growth_Rep1 [2, 6] of 94.32%. For the same compound, the Pf_72h_%Growth_Rep2 [2, 7] was 122.09%, the Tg_72h_%Growth_Rep1 [3, 8] was 112.17% and the Tg_72h_%Growth_Rep2 [3, 9] was 75.26%.
